Laboratory results from patent US20240424053A1, “METHODS AND COMPOSITIONS FOR PROVIDING MYOCARDIAL PROTECTION AND TREATING MYOCARDIAL STRESS AND FIBROSIS” (Tufts Medical Center, Inc., priority 2021, published 2024).
Like-named read-outs stand apart in the source and are kept apart here. Where a SMILES comes first, the peptide text is derived from it. The star is where a group is joined. Palmitoyl = CCCCCCCCCCCCCCCC(=O)*

Tests used:
PAR1 [1] = biological target: T1, PAR1 (Mus musculus, UniProt P30558); assay: myocardial ischemia (30 min left coronary artery occlusion) / 2 h reperfusion in mice; assay type: in vivo; details: 10 mg/kg sc before ischemia
T1 construct: endogenous in cells; host or cells: male C57BL/6N mice, in vivo
T1 sequence (P30558 22-430): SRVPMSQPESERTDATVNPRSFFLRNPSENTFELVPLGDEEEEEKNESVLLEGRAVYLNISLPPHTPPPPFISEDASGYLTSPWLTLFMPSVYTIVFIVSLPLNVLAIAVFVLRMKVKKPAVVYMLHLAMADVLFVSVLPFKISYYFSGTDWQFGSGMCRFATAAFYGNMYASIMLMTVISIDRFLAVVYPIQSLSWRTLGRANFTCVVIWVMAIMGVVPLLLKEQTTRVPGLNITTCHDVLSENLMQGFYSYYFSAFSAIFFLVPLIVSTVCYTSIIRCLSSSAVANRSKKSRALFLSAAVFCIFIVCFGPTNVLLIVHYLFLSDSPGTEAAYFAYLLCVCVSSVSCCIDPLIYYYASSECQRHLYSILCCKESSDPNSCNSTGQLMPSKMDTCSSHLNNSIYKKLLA
Protocol: FIGS. 1A-E show protection against cardiac myocardial injury by PZ-128 in mice. […] Images were quantified using ImageJ and adjusted by weight of each cardiac slice. Data are shown as mean±SD and analyzed by two-tailed Student's t-test: **p<0.01, ***p<0.001.
A role of PAR1 in directly mediating cardiac ischemic myonecrosis—independent of established platelet-dependent effects (Strande et al., Basic Res. Cardiol. 102(4):350-358, 2007)—was also examined. […] Mice (n=7) were treated with vehicle or 10 mg/kg PZ-128 (subcutaneous; sc) just prior to ischemic injury. As shown in FIG. 1a-d, PZ-128-treated mice had 51-62% reductions in mean cardiac Infarct Area (p<0.01), Area At Risk (p<0.01), and Total Ischemic Area (p<0.0001) compared to vehicle-treated mice. […] Using echocardiography after 3 days of reperfusion, there was a significant increase in left ventricular mass (p<0.05) in vehicle compared to PZ-128 treated cohorts, with no difference in left ventricular mass between baseline and 3 days in the PZ-128 cohort (FIG. 2). […] Previous pharmacokinetic studies of subcutaneously administered PZ-128 in mice were the basis of this 10 mg/kg dose in mice (Cisowski et al., Am. J. Pathol. 179(1):513-523, 2011), selected to match the 0.3-0.5 mg/kg doses administered in humans.
Eight-week male C57BL/6N mice were vehicle (20% DMSO) or 10 mg/kg PZ-128 1 h before cardiac surgery (n=7 per group). The left coronary artery was occluded for 30 min with a ligature left in place during reperfusion. Blood flow was restored for 2 h, then the left coronary artery was reoccluded, and 5% Evans blue dye was injected via the aorta. Hearts were frozen and sectioned in OTC, before incubation in TTC for 10 min at 37° C. (a) Sections were digitally scanned and the area of white (b—Infarct area=1), red (c—Area at Risk=AAR), white+red (d—total Ischemic area), and blue (e—Reperfusion area=R) quantified using ImageJ and adjusted by weight of each cardiac slice. Data are shown as mean±SD and analyzed by two-tailed Student's t-test: **p<0.01, ***p<0.001.

PAR1 [2] = biological target: T2, PAR1 (Homo sapiens, UniProt P25116); assay: NT-proBNP plasma levels in heart failure subset of TRIP-PCI; assay type: in vivo; details: 24 hours after single dose (0.3 or 0.5 mg/kg combined), HF patients n=5, P=0.02
T2 construct: delivered intravenously in 100 patients with coronary artery disease (CAD) and acute coronary syndrome (ACS) undergoing cardiac catheterization; endogenous in cells; host or cells: patients of the TRIP-PCI trial (platelets ex vivo; whole body in vivo)
T2 sequence (P25116 22-425): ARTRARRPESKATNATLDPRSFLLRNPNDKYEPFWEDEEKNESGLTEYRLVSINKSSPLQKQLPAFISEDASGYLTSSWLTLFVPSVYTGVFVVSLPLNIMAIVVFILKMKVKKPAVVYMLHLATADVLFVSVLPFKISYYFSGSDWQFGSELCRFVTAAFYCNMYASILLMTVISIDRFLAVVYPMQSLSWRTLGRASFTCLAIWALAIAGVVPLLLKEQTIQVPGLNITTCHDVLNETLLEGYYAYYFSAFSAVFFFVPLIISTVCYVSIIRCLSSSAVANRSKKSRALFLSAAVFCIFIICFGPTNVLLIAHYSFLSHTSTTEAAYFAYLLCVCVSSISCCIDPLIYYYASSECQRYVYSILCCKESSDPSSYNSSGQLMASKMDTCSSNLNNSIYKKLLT
Protocol: Data was analyzed by 2-sided paired T-tests. Normal levels of NT-proBNP ≤125 pg/mL.
The TRIP-PCI (Thrombin Receptor Inhibitory Pepducin in PCI) Phase 2 trial (Kuliopulos et al., Arterioscler. Thromb. Vasc. Biol. 40(12):2990-3003, 2020), which enrolled a subset of patients with HF, was conducted to assess the safety, target engagement, and efficacy of PZ-128 in patients undergoing cardiac catheterization with intent to perform percutaneous coronary intervention (PCI). As explained above, in this randomized, double-blind, placebo-controlled, phase 2 trial, 100 patients were randomly assigned (2:1) to receive PZ-128 (0.3 mg/kg or 0.5 mg/kg), or placebo in a two-hour infusion initiated just prior to the start of cardiac catheterization. […]
In the BNP multinational study of 1568 patients presenting with dyspnea to the emergency department, BNP and NT-proBNP were the single most accurate predictors of diagnosis and severity of ADHF, and are used as a well-validated surrogate clinical efficacy endpoint in human trials (Ibrahim et al., Circ. Res. 123(5):614-629, 2018; Ibrahim et al., Circ. Heart Fail. 9(9), 2016). NT-proBNP levels were measured at baseline and 24 hours after the PZ-128 or placebo infusion was initiated and the cardiac catheterization procedure completed in the subset of patients with heart failure. […]

PAR1 [3] = biological target: T2, PAR1; details: cited from earlier work

For `CCCCCCCCCCCCCCCC(=O)N[C@@H](CCCCN)C(=O)N[C@@H](CCCCN)C(=O)N[C@@H](CO)C(=O)N[C@@H](CCCNC(=N)N)C(=O)N[C@@H](C)C(=O)N[C@@H](CC(C)C)C(=O)N[C@@H](Cc1ccccc1)C(N)=O` [PZ-128, Palmitate-KKSRALF-NH2] (Palmitoyl-KKSRALF-NH2), the “reduction in mean Total Ischemic Area vs vehicle” value (PAR1 [1]; n=7, p<0.0001) was 51-62%, the “increase in total area of cardiac muscle able to be reperfused vs vehicle” value (PAR1 [1]; n=7, p<0.001) was 50% and the “reduction in mean Area At Risk vs vehicle” value (PAR1 [1]; n=7, p<0.01) was 51-62%. The “reduction in mean cardiac Infarct Area vs vehicle” value (PAR1 [1]; n=7, p<0.01) was 51-62%, the “change in NT-proBNP levels” value (PAR1 [2]) was “significant mean drop” and the “overall safety and tolerability” value (PAR1 [3]; 0.3 and 0.5 mg/kg, single 2-h intravenous infusion, 100 patients) was “safe and well-tolerated”. The “hazard ratio of a MACE/myonecrosis event versus placebo” value (PAR1 [3]; PZ-128 treated groups, nonsignificant decrease) was 0.81, the “major adverse coronary events (MACE)” value (PAR1 [3]; at 30 days, combined PZ-128 dose groups (placebo 6%, P=0.13)) was 0% and the “major adverse coronary events (MACE)” value (PAR1 [3]; at 90 days, combined PZ-128 dose groups (placebo 6%, P=0.29)) was 2%. For the same compound, the “MACE and myocardial injury within 30 days” value (PAR1 [3]; subgroup with elevated baseline cardiac troponin I (placebo 83%, P=0.02)) was 31% and the “primary safety endpoint: bleeding vs vehicle” value (PAR1 [3]; up to 30 days posttreatment) was “not significantly different”.
